pIC50: −log10 of the molar value.
How the values were obtained:
[1] = system: MDA-MB-231 tumor xenografts; test: Chorioallantoic membrane (CAM) xenograft assay, MDA-MB-231; format: in vivo, chick embryo; conditions: MDA-MB-231 on CAM
Experimental: Fertilized eggs from white leghorn chicken were obtained from Public Health Agency of Canada (Nepean, ON). Ethics approval was obtained from the Ethics Committee on Animal Research of the University of Sherbrooke and all experimental procedures involving embryos were conducted in accordance with the regulations of the Canadian Council on Animal Care. Eggs were incubated in an Ova-Easy egg incubator (Brinsea) at 37° C. with 60% humidity. At Day 3, eggs were cracked as described^67. At Day 9, HT-1080 and MDA-MB-231 cell suspensions (1×10^6 and 2×10^6 cells, respectively) were mixed (1:1) with growth factor reduced Matrigel (BD Biosciences) in a total volume of 20 μl. Cell grafts were placed on top of the CAM and eggs were returned to the incubator for 96 h until Day 13 (n>6 chick embryos per cell line). When mentioned, 50 μl of Dox were added topically to the formed tumors (Day 13 after tumor cell grafting). At Day 16, chick embryos were euthanatized by decapitation. Tumors were removed and tumor volumes were calculated using the formula: (Dd^2/3). For RNA quantification, tumors were immediately snap-frozen in liquid nitrogen and kept at −80° C. until RNA extraction using the Trizol reagent.
To determine whether these observations were of relevance to tumor therapy in vivo, the inventors used an ex ovo chorioallantoic membrane (CAM) xenograft model in live chicken embryos^40. MDA-MB-231 or HT-1080 cells, or cells expressing either the NHE6^527-588 competing fragment or its scrambled counterpart were inoculated onto the CAM of 9-day-old chick embryos. After allowing 3 days for cells to engraft, tumors were treated with Doxorubicin or PBS. Four days later, chick embryos were euthanized, and tumors were removed for analysis (FIG. 10A). To first ascertain that tumors implanted in CAM developed hypoxia, total mRNA was extracted from tumors generated by untransfected HT-1080 cells and gene expression of the hypoxic markers CA9, GLUT1 and MCT4 was measured by qPCR. […]

[2] = system: HT1080 cancer cell line; test: MTT assay, doxorubicin with C2 or C2WY→AA peptide; format: cell-based; conditions: Homo sapiens
Experimental: The IC50 (half-maximal inhibitory concentration) values of doxorubicin for HT1080 cancer cell line treated with the C2 peptide ([…] (SEQ ID NO: 7)) or the C2WY→AA peptide ([…] (SEQ ID NO: 60)) were determined in normoxia or hypoxia.
Cells (5×10^3) were cultured in 96-well plates and preincubated under 21% O2 or 1% O2 for 4 h following the addition of doxorubicin (dose response from 10^−1 to 10^5 nM) in the presence or absence of C2 and C2WY→AA peptides (SEQ ID NOs: 7 and 60) for 72 h. Cell viability was measured using the MTT dye (Life Technologies) according to the manufacturer's instructions. Because hypoxic conditions may affect the reduction of MTT to formazan, incubation of all cell cultures with MTT were performed under normoxic conditions. Each experiment was performed in triplicate. Log-scale dose-response data were plotted on a graph and a three-parameter nonlinear regression was applied to determine IC50 values. Data are presented as the mean (nM).

pIC50 ([2]; HT-1080, Experiment 1, peptide: Vehicle, 1% O2): 7.08
pIC50 ([2]; HT-1080, Experiment 1, peptide: Vehicle, 21% O2): 7.80
pIC50 ([2]; HT-1080, Experiment 1, with C2 0.25 μM, 1% O2): 7.40
pIC50 ([2]; HT-1080, Experiment 1, with C2 0.25 μM, 21% O2): 7.91
pIC50 ([2]; HT-1080, Experiment 1, with C2 5.00 μM, 1% O2): 7.41
pIC50 ([2]; HT-1080, Experiment 1, with C2 5.00 μM, 21% O2): 7.76
pIC50 ([2]; HT-1080, Experiment 1, with C2WY→AA 0.25 μM, 1% O2): 7.00
pIC50 ([2]; HT-1080, Experiment 1, with C2WY→AA 0.25 μM, 21% O2): 7.67
pIC50 ([2]; HT-1080, Experiment 1, with C2WY→AA 5.00 μM, 1% O2): 7.12
pIC50 ([2]; HT-1080, Experiment 1, with C2WY→AA 5.00 μM, 21% O2): 7.79
pIC50 ([2]; HT-1080, Experiment 2, peptide: Vehicle, 1% O2): 7.15
pIC50 ([2]; HT-1080, Experiment 2, peptide: Vehicle, 21% O2): 7.87
pIC50 ([2]; HT-1080, Experiment 2, with C2 0.25 μM, 1% O2): 7.51
pIC50 ([2]; HT-1080, Experiment 2, with C2 0.25 μM, 21% O2): 7.93
pIC50 ([2]; HT-1080, Experiment 2, with C2 20.0 μM, 1% O2): 7.80
pIC50 ([2]; HT-1080, Experiment 2, with C2 20.0 μM, 21% O2): 8.00
pIC50 ([2]; HT-1080, Experiment 2, with C2WY→AA 0.25 μM, 1% O2): 7.00
pIC50 ([2]; HT-1080, Experiment 2, with C2WY→AA 0.25 μM, 21% O2): 7.90
pIC50 ([2]; HT-1080, Experiment 2, with C2WY→AA 20.0 μM, 1% O2): 7.13
pIC50 ([2]; HT-1080, Experiment 2, with C2WY→AA 20.0 μM, 21% O2): 7.96
SMILES: COc1cccc2c1C(=O)c1c(O)c3c(c(O)c1C2=O)C[C@@](O)(C(=O)CO)C[C@@H]3O[C@H]1C[C@H](N)[C@H](O)[C@H](C)O1 [Dox, doxorubicin]
tumor growth ([1]; 1 μM Dox): unaffected
tumor growth ([1]; 5 μM Dox topical): significantly reduced
